Reference: the supplement of paper PMC10307832

Columns and labels:
Test in all cases: relative viability (nuclei count vs DMSO), 5 days (fraction); higher = more cells survive
Alisertib + AZD7762 = compound: COc1cc(Nc2ncc3c(n2)-c2ccc(Cl)cc2C(c2c(F)cccc2OC)=NC3)ccc1C(=O)O [Alisertib] + NC(=O)Nc1cc(-c2cccc(F)c2)sc1C(=O)N[C@H]1CCCNC1 [AZD7762] (partner 0.2 µM)
Outline: (§1)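 Cells from lung cancer lines were seeded into 1536-well plates and, one day later, dosed by pin tool. Treatments were either a single drug or a fixed dose of an anchor drug with five library-drug doses (not always all listed) in √10 steps. After 5 days, nuclei were stained in a one-step fixation (final 0.05% Triton X-100, 1% formaldehyde, 1 ug/ml Hoechst) and counted on 4× images, and relative viability is the treated-to-vehicle nuclei ratio, as the median of duplicate plates.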

Alisertib + Vorinostat = compound: COc1cc(Nc2ncc3c(n2)-c2ccc(Cl)cc2C(c2c(F)cccc2OC)=NC3)ccc1C(=O)O [Alisertib] + O=C(CCCCCCC(=O)Nc1ccccc1)NO [Vorinostat] (partner 1 µM)
Outline: as §1

Alisertib + Foretinib = compound: COc1cc(Nc2ncc3c(n2)-c2ccc(Cl)cc2C(c2c(F)cccc2OC)=NC3)ccc1C(=O)O [Alisertib] + COc1cc2c(Oc3ccc(NC(=O)C4(C(=O)Nc5ccc(F)cc5)CC4)cc3F)ccnc2cc1OCCCN1CCOCC1 [Foretinib] (partner 0.25 µM)
Outline: as §1

Alisertib + Pictilisib = compound: COc1cc(Nc2ncc3c(n2)-c2ccc(Cl)cc2C(c2c(F)cccc2OC)=NC3)ccc1C(=O)O [Alisertib] + CS(=O)(=O)N1CCN(Cc2cc3nc(-c4cccc5[nH]ncc45)nc(N4CCOCC4)c3s2)CC1 [Pictilisib] (partner 1 µM)
Outline: as §1

Cell Line | relative viability (Alisertib + AZD7762; first compound 0.005 µM) | relative viability (Alisertib + AZD7762; first compound 0.01581 µM) | relative viability (Alisertib + AZD7762; first compound 0.05 µM) | relative viability (Alisertib + AZD7762; first compound 0.1581 µM) | relative viability (Alisertib + AZD7762; first compound 0.5 µM) | relative viability (Alisertib + Vorinostat; first compound 0.005 µM) | relative viability (Alisertib + Vorinostat; first compound 0.01581 µM) | relative viability (Alisertib + Vorinostat; first compound 0.05 µM) | relative viability (Alisertib + Vorinostat; first compound 0.1581 µM) | relative viability (Alisertib + Vorinostat; first compound 0.5 µM) | relative viability (Alisertib + Foretinib; first compound 0.005 µM) | relative viability (Alisertib + Foretinib; first compound 0.01581 µM) | relative viability (Alisertib + Foretinib; first compound 0.05 µM) | relative viability (Alisertib + Foretinib; first compound 0.1581 µM) | relative viability (Alisertib + Foretinib; first compound 0.5 µM) | relative viability (Alisertib + Pictilisib; first compound 0.005 µM) | relative viability (Alisertib + Pictilisib; first compound 0.01581 µM) | relative viability (Alisertib + Pictilisib; first compound 0.05 µM) | relative viability (Alisertib + Pictilisib; first compound 0.1581 µM) | relative viability (Alisertib + Pictilisib; first compound 0.5 µM)
NCI-H441 | 0.927 | 0.977 | 0.471 | 0.243 | 0.199 | 0.692 | 0.723 | 0.373 | 0.217 | 0.185 | 0.845 | 0.546 | 0.308 | 0.262 | 0.232 | 0.402 | 0.229 | 0.118 | 0.139 | 0.123
NCI-H1793 | 0.327 | 0.166 | 0.215 | 0.148 | 0.115 | 0.465 | 0.41 | 0.267 | 0.191 | 0.221 | 0.715 | 0.286 | 0.232 | 0.194 | 0.138 | 0.327 | 0.297 | 0.23 | 0.18 | 0.208
NCI-H23 | 0.194 | 0.139 | 0.127 | 0.135 | 0.0999 | 0.456 | 0.24 | 0.132 | 0.153 | 0.149 | 0.759 | 0.452 | 0.269 | 0.235 | 0.211 | 0.422 | 0.302 | 0.18 | 0.185 | 0.147
HARA | 0.28 | 0.567 | 0.339 | 0.217 | 0.0911 | 0.44 | 0.131 | 0.0659 | 0.0632 | 0.0823 | 0.864 | 0.663 | 0.316 | 0.148 | 0.101 | 0.283 | 0.426 | 0.511 | 0.112 | 0.0803
NCI-H1792 | 0.571 | 0.343 | 0.135 | 0.0427 | 0.0721 |  |  |  |  |  |  |  |  |  |  | 0.304 | 0.223 | 0.0811 | 0.0732 | 0.0644
NCI-H1703 | 0.119 | 0.134 | 0.115 | 0.0952 | 0.0979 |  |  |  |  |  | 0.313 | 0.379 | 0.29 | 0.248 | 0.201 | 0.246 | 0.22 | 0.182 | 0.163 | 0.155
NCI-H2342 | 0.565 | 0.43 | 0.347 | 0.352 | 0.414 | 0.65 | 0.662 | 0.61 | 0.464 | 0.397 | 1.04 | 1.09 | 0.652 | 0.464 | 0.363 |  |  |  |  | 
CAL-12T | 0.528 | 0.314 | 0.183 | 0.224 | 0.201 | 0.506 | 0.592 | 0.262 | 0.189 | 0.169 | 0.995 | 0.821 | 0.231 | 0.231 | 0.212 | 0.322 | 0.294 | 0.134 | 0.246 | 0.218
NCI-H838 | 0.943 | 0.852 | 0.715 | 0.669 | 0.626 | 0.597 | 0.461 | 0.294 | 0.185 | 0.197 | 1.03 | 0.971 | 0.605 | 0.394 | 0.202 | 0.377 | 0.379 | 0.274 | 0.189 | 0.113
NCI-H2085 | 0.876 | 0.874 | 0.882 | 0.284 | 0.348 | 0.73 | 0.771 | 0.431 | 0.441 | 0.448 | 1.03 | 0.812 | 0.309 | 0.259 | 0.228 | 0.463 | 0.435 | 0.46 | 0.248 | 0.248
NCI-H1395 | 0.363 | 0.403 | 0.37 | 0.376 | 0.361 | 0.667 | 0.588 | 0.442 | 0.385 | 0.321 | 0.895 | 0.916 | 0.696 | 0.561 | 0.38 | 0.566 | 0.517 | 0.597 | 0.492 | 0.377
NCI-H1648 |  | 0.654 | 0.62 | 0.314 | 0.223 |  | 0.22 | 0.315 | 0.235 | 0.236 |  |  |  |  |  |  |  |  |  | 
NCI-H460 | 0.66 | 0.667 | 0.232 | 0.0611 | 0.0558 | 0.683 | 0.527 | 0.0348 | 0.039 | 0.0281 | 0.98 | 0.956 | 0.283 | 0.0899 | 0.0482 | 0.364 | 0.428 | 0.327 | 0.0613 | 0.0689
A549 |  |  |  |  |  |  |  |  |  |  | 0.977 | 0.492 | 0.209 | 0.0402 | 0.0374 | 0.423 | 0.123 | 0.051 | 0.0422 | 0.0618
IA-LM |  |  |  |  |  | 0.986 | 0.87 | 0.564 | 0.189 | 0.0645 | 1.11 | 1.09 | 0.737 | 0.214 | 0.0846 | 0.332 | 0.25 | 0.201 | 0.142 | 0.0927
EKVX | 0.554 | 0.46 | 0.278 | 0.132 | 0.172 | 0.684 | 0.551 | 0.285 | 0.263 | 0.319 | 0.954 | 0.812 | 0.194 | 0.195 | 0.202 | 0.405 | 0.418 | 0.266 | 0.157 | 0.15
ChaGo-K-1 | 0.827 | 0.755 | 0.633 | 0.213 | 0.166 | 0.653 | 0.643 | 0.24 | 0.207 | 0.161 | 0.922 | 0.845 | 0.237 | 0.21 | 0.192 | 0.632 | 0.457 | 0.267 | 0.283 | 0.184
NCI-H1755 | 0.478 | 0.427 | 0.332 | 0.328 | 0.259 | 0.768 | 0.776 | 0.433 | 0.386 | 0.329 | 0.85 | 0.846 | 0.615 | 0.532 | 0.325 | 0.41 | 0.347 | 0.271 | 0.227 | 0.184
